# In paper PMC4865847, “Putative histidine kinase inhibitors with antibacterial effect against multi-drug resistant clinical isolates identified by in vitro and in silico screens” (Scientific Reports, 2016):
# Read-outs that look alike come from different tables or passages of the source.
# Columns and labels:
# E. coli EnvZ = molecular target: T1, E. coli EnvZ (Escherichia coli, UniProt P0AEJ4); test: Aggregation analysis by native-PAGE, EnvZ; conditions: 2 mM, 10% DMSO
# T1 construct: The catalytic portion (DHp and CA domain) of E. coli PhoR (PhoR^E), E. coli EnvZ; made in house; host or cells: E. coli RIL
# T1 sequence (P0AEJ4 240-440): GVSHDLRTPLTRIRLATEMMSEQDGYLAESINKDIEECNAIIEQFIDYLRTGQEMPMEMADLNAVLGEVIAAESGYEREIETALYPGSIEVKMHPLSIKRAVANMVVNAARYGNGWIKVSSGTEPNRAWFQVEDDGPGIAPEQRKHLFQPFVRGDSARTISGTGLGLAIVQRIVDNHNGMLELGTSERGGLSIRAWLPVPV
# Protocol: (§1) E. coli PhoR and EnvZ, and S. aureus PhoR ([…], final concentration) were prepared in kinase buffer. […] DMSO in the assays was maintained to a final concentration 10% (v/v). After 30 min of incubation at room temperature Native polyacrylamide gel electrophoresis (Native-PAGE) loading buffer was added and samples loaded. Coomassie blue staining was used for protein visualization.
# [1] = molecular target: T2, HK WalK (DHp and CA domain) (Streptococcus pneumoniae, UniProt Q8DPL8); test: Differential scanning fluorimetry (DSF), WalK; format: binding
# T2 construct: WalK (amino acids from 208 to 449); N-terminal His6-3C site of vector pOPINF (own knowledge of the vector); made in house; host or cells: E. coli RIL
# T2 sequence (Q8DPL8 208-449): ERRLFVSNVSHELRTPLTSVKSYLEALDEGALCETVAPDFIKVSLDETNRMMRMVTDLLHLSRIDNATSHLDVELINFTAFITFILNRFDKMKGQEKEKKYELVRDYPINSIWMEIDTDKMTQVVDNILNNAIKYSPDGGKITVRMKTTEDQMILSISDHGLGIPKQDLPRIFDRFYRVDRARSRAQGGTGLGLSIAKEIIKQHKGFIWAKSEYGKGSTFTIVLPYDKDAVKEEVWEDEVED
# Protocol: (§2) To monitor protein unfolding, the fluorescent dye Sypro orange was used[26]. Differential scanning fluorimetry (DSF) experiments were conducted in the iCycleriQ Real Time Detection System (Bio-Rad, Hercules, CA). Solutions of 20 μl of 0.1 mg/ml protein (final concentration), 200 μM fragment cocktails or individual fragments (final concentration), 10X sypro orange (final concentration) and buffer (100 mM TrisCl pH 8, 150 mM NaCl) were added to the wells of the 96-well iCycler iQ PCR plate. The plate was heated from 20 to 85 or 99 °C at a heating rate of 1 °C/min. The fluorescent intensity was measured with Ex/Em: 490/530 nm. Prism GraphPad v.5 was used for curve fitting and statistical analysis.
# HK NblS (CA domain) = test: Differential scanning fluorimetry (DSF), NblS; format: binding, Synechococcus sp. PCC 7942
# Protocol: as §2
# E. coli PhoR (PhoR^E) [2] = molecular target: T3, E. coli PhoR (PhoR^E) (Escherichia coli, UniProt P08400); test: In vitro autophosphorylation kinase assay with γ-32P-ATP, PhoR^E; format: biochemical; conditions: for IC50: autophosphorylation, one time point (30 sec), 10% DMSO, read-out: IC50 PhoR^E
# T3 construct: The catalytic portion (DHp and CA domain) of E. coli PhoR (PhoR^E); made in house; host or cells: E. coli RIL
# T3 sequence (P08400 210-425): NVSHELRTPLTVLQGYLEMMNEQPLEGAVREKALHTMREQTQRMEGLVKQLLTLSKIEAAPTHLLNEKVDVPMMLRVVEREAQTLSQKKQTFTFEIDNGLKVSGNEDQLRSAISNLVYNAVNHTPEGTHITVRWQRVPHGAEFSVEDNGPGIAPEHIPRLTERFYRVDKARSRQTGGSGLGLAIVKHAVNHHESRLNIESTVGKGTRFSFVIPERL
# In short: (§3)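 Histidine kinase (0.12 mg/ml, ≈4 μM) incubated with up to 20 mM fragment in 50 mM Tris HCl pH 8.5, 50 mM KCl, 5 mM MgCl2, 0.5 mM EDTA, 0.1 mM DTT; started with 0.1 μCi/μl γ-32P-ATP (0.03–0.06 μM ATP final). Phosphoprotein quantified by SDS-PAGE and phosphor-imaging, curve-fitted; DMSO controls.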
# [3] = system: Staphylococcus epidermidis; test: Antibacterial susceptibility testing (MIC/MBC), S. epidermidis; format: cell-based; conditions: Staphylococcus epidermidis
# Protocol: (§4) Minimal inhibitory concentrations (MICs) were determined following a standard double-dilution method. […] For S. pneumoniae MICs were determined by adapting the standard double-dilution method to anaerobic conditions and of this microorganism (use of Todd Hewitt Yeast extract with 200 U/mL of catalase and continuous monitoring of growth).
# Staphylococcus aureus = test: Antibacterial susceptibility testing (MIC/MBC), S. aureus; format: cell-based; conditions: Staphylococcus aureus; for MBC: read-out: MBC S. aureus DSM 20231
# Protocol: as §4
# Escherichia coli = test: Antibacterial susceptibility testing (MIC/MBC), E. coli; format: cell-based
# Protocol: as §4
# S. pneumoniae WalK = molecular target: T4, S. pneumoniae WalK (Streptococcus pneumoniae, UniProt Q8DPL8); test: In vitro autophosphorylation kinase assay with γ-32P-ATP, WalK; format: biochemical; conditions: for IC50: autophosphorylation, one time point (30 sec), 10% DMSO, read-out: IC50 WalK
# T4 construct: WalK (amino acids from 208 to 449); N-terminal His6-3C site of vector pOPINF (own knowledge of the vector); made in house; host or cells: E. coli RIL
# T4 sequence (Q8DPL8 208-449): as the sequence (Q8DPL8 208-449) above
# In short: as §3
# E. coli PhoR (PhoR^E) [4] = molecular target: T3, E. coli PhoR (PhoR^E); test: Aggregation analysis by native-PAGE, PhoR^E; conditions: 2 mM (S5 and S6 5 mM), 10% DMSO
# Protocol: as §1
# S. aureus PhoR (PhoR^S) = S. aureus PhoR (PhoR^S) (Staphylococcus aureus, UniProt Q2FXN7); test: Aggregation analysis by native-PAGE, PhoR^S; conditions: 2 mM (S5 and S6 5 mM), 10% DMSO
# Sequence of S. aureus PhoR (PhoR^S) (Q2FXN7 entry or part of it): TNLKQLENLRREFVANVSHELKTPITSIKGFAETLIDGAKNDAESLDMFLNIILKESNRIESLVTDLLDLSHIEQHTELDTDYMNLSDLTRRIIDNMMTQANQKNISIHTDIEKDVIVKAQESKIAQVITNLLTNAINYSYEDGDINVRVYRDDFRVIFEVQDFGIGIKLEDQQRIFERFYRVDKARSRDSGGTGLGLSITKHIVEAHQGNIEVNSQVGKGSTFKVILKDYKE
# Protocol: as §1
# Hemolysis assay = format: cell-based; conditions: human
# Protocol: Hemolytic activity against human erythrocytes taken from a healthy donor was measured as previously described. The hemolysis experiments were carried out in accordance with the guidelines of the United Arab Emirates University (UAEU) Research Ethics Review Board. All experimental protocols were approved by the Research Ethics Review Board of UAEU and informed consent was obtained from all donors.
# Streptococcus pneumoniae = test: Antibacterial susceptibility testing (MIC), S. pneumoniae; format: cell-based; conditions: strain 49619
# Protocol: (§5) Bacterial strains used in this study for antibacterial susceptibility testing (Table S5) were propagated using standard microbiological procedures. Minimal inhibitory concentrations (MICs) were determined following a standard double-dilution method. MICs were recorded as the lowest concentration of the compound where no visible growth was observed. After plating the dilutions around the MIC or growing them in fresh MH media, minimal bactericidal concentration (MBC) was recorded as the lowest concentration of the compound at which no colonies were formed or no growth was observed, respectively. For S. pneumoniae MICs were determined by adapting the standard double-dilution method to anaerobic conditions and of this microorganism (use of Todd Hewitt Yeast extract with 200 U/mL of catalase and continuous monitoring of growth).
# [5] = Solubility in kinase buffer; format: physicochemical; conditions: kinase buffer with 10% DMSO, pH 8.5, aqueous with cosolvent or surfactant or cyclodextrin, kinetic from dmso stock; kinase buffer in the presence of 10% DMSO; read-out: concentration above which not soluble / reduced solubility in kinase buffer
# Streptococcus suis = test: Antibacterial susceptibility testing (MIC), S. suis; format: cell-based; conditions: Streptococcus suis, read-out: MIC Streptococcus suis 3881/S10, strain 3881/S10
# Protocol: as §5
# Klebsiella pneumoniae = test: Antibacterial susceptibility testing (MIC), K. pneumoniae; format: cell-based
# Protocol: as §5
# Acinetobacter baumannii = test: Antibacterial susceptibility testing (MIC), A. baumannii; format: cell-based
# Protocol: as §5
# [6] = system: Stenotrophomonas maltophilia; test: Antibacterial susceptibility testing (MIC), S. maltophilia; format: cell-based; conditions: clinical isolate B32/1, read-out: MIC S. maltophilia B32/1
# Protocol: as §5
# Pseudomonas aeruginosa = test: Antibacterial susceptibility testing (MIC), P. aeruginosa; format: cell-based; conditions: Pseudomonas aeruginosa, ATCC27853; strain ATCC 27853
# Protocol: as §5
# [7] = system: Gram-positive B. subtilis; parameters: method as in PMID 25531939; conditions: cited from earlier work
# S. pneumoniae VicK = system: S. pneumoniae VicK; parameters: method as in PMID 25531939; conditions: cited from earlier work
# [8] = system: Gram negative E. coli DC2; parameters: method as in PMID 25531939; conditions: cited from earlier work
# [9] = Escherichia coli, strain CFT 073, read-out: MIC E. coli CFT 073
smiles,measurement,setting,value
"Oc1ccc2c(c1)[nH]c1ccccc12 [F2, 2-hydroxy-carbazole]","HK aggregation, EnvZ",E. coli EnvZ,do not cause HK aggregation
same,increase of WalK Tm,[1],3.9 °C
same,increase of NblS Tm,HK NblS (CA domain),2.2 °C
same,IC50,E. coli PhoR (PhoR^E) [2],300 µM
same,MIC,"[3]; DSM20044, strain DSM 20044, read-out: MIC S. epidermidis DSM 20044",> 500 µg/mL
same,MBC,"Staphylococcus aureus; DSM20231, strain DSM 20231",> 500 µg/mL
same,MIC,"Staphylococcus aureus; DSM20231, strain DSM 20231, read-out: MIC S. aureus DSM 20231",31 µg/mL
same,MIC,Escherichia coli; [9],> 500 µg/mL
same,IC50,S. pneumoniae WalK,> 2000 µM
same,inhibitory capacity for WalK autophosphorylation activity,"S. pneumoniae WalK; single concentration 5 mM, 30 sec",weak inhibitory capacity
same,"HK aggregation, PhoR^E",E. coli PhoR (PhoR^E) [4],do not cause HK aggregation
same,"HK aggregation, PhoR^S",S. aureus PhoR (PhoR^S),do not cause HK aggregation
Nc1nccc(Nc2ccc(Br)cc2)n1 [F1.8],HC50,Hemolysis assay,> 500 µg/mL
same,MIC,Streptococcus pneumoniae,128 µg/mL
same,solubility,[5],≤ 1000 µM
same,MIC,Streptococcus suis,250 µg/mL
same,MIC,"Klebsiella pneumoniae; Klebsiella pneumoniae, ATCC700603, strain ATCC 700603",125 to 250 µg/mL
same,MIC K. pneumoniae ATCC700603,Klebsiella pneumoniae; strain ATCC 700603,250 µg/mL
same,inhibition at 2000 µM,"E. coli PhoR (PhoR^E) [2]; 2 mM, 30 sec, compared to negative control",> 50%
same,IC50,E. coli PhoR (PhoR^E) [2],≤ 1000 µM
same,MBC,"[3]; DSM20044, strain DSM 20044",125 µg/mL
same,MIC,"[3]; clinical isolate T7/3, read-out: MIC S. epidermidis T7/3",31 µg/mL
same,MIC,"[3]; clinical isolate T37/8, read-out: MIC S. epidermidis T37/8",500 µg/mL
same,MIC,"[3]; clinical isolate T6119, read-out: MIC S. epidermidis T6119",250 µg/mL
same,MIC,"[3]; strain RP62A (biofilm producer), read-out: MIC S. epidermidis RP62A",500 µg/mL
same,MIC,"[3]; strain RP62A/1 (non-biofilm producer), read-out: MIC S. epidermidis RP62A/1",250 µg/mL
same,MIC,"[3]; summary over strains, read-out: MICs for the S. epidermidis strains",31 to 500 µg/mL
same,MIC,"Acinetobacter baumannii; MDR clinical isolate NM8, read-out: MIC A. baumannii NM8",125 µg/mL
same,MIC,"Acinetobacter baumannii; MDR clinical isolate NM35, read-out: MIC A. baumannii NM35",125 µg/mL
same,MIC,"Acinetobacter baumannii; MDR clinical isolate NM75, read-out: MIC A. baumannii NM75",250 µg/mL
same,MIC,"Acinetobacter baumannii; MDR clinical isolate NM109, read-out: MIC A. baumannii NM109",125 µg/mL
same,MIC,"Acinetobacter baumannii; MDR clinical isolate NM124, read-out: MIC A. baumannii NM124",125 µg/mL
same,MIC,"Acinetobacter baumannii; summary over strains, read-out: MICs for A. baumannii strains",125 to 250 µg/mL
same,MIC,"Staphylococcus aureus; ATCC reference strain 25293, read-out: MIC S. aureus 25293",250 µg/mL
same,MBC,"Staphylococcus aureus; DSM20231, strain DSM 20231",250 µg/mL
same,MIC,"Staphylococcus aureus; MRSA clinical isolate 127/08, read-out: MIC S. aureus 127/08",250 µg/mL
same,MIC,"Staphylococcus aureus; MRSA clinical isolate 145/08, read-out: MIC S. aureus 145/08",250 µg/mL
same,MIC,"Staphylococcus aureus; MRSA clinical isolate 274/08, read-out: MIC S. aureus 274/08",250 µg/mL
same,MIC,"Staphylococcus aureus; MRSA, MRSA clinical isolate S908, read-out: MIC S. aureus S908",250 µg/mL
same,MIC,"Staphylococcus aureus; MRSA, MRSA clinical isolate T4/6, read-out: MIC S. aureus T4/6",250 µg/mL
same,MIC,"Staphylococcus aureus; MRSA, MRSA clinical isolate V4180, read-out: MIC S. aureus V4180",250 µg/mL
same,MIC,"Staphylococcus aureus; MRSA, summary over strains, read-out: MICs for the S. aureus reference strains and the MRSA strains",125 to 250 µg/mL
same,MIC,"Escherichia coli; Escherichia coli, ATCC25276, strain ATCC 25276, read-out: MIC E. coli ATCC 25276",125 to 250 µg/mL
same,MBC,"Escherichia coli; Escherichia coli, strain CFT 073, read-out: MBC E. coli CFT 073",500 µg/mL
same,MIC,Escherichia coli; [9],< 250 µg/mL
same,MIC,"Escherichia coli; Escherichia coli, summary over E. coli strains, read-out: antibacterial effects (MIC) against E. coli",≥ 250 µg/mL
same,MIC E. coli ATCC 25276,Escherichia coli; strain ATCC 25276,250 µg/mL
same,MIC E. coli CFT 073,Escherichia coli; strain CFT 073,250 µg/mL
same,IC50,S. pneumoniae WalK,> 2000 µM
same,MIC,[6],> 500 µg/mL
same,MIC,Pseudomonas aeruginosa,500 µg/mL
Nc1nc2ccc(Oc3ccc4nc(N)sc4c3)cc2s1 [Compound 11],MIC Gram positive,[7],≥ 49 µg/mL
same,MICs for the Gram-positive B. subtilis,[7],49 to 64 µg/mL
same,IC50,S. pneumoniae VicK,75 µM
same,MIC Gram negative,[8],≥ 32 µg/mL
same,MICs for the Gram negative E. coli DC2,[8],32 to 64 µg/mL
